Measured values: patent US7202270B2, “Convenient stable non-hygroscopic crystalline solid forms of racemic and chiral LA-plus salts: process for their manufacture and uses” (priority 2003, dated 2007)
Where a name gives a salt, the structure may show the parent alone.

Key:
Propionibacterium acnes = test: Inhibition of P. acnes (zone of inhibition); assay type: cell-based; settings: for Zone of inhibition: P. acnes
Collagenase = Collagenase inhibition; assay type: biochemical
[1] = Antioxidant assay by DPPH radical scavenging activity; assay type: biochemical
Tyrosinase = test: Activity on Tyrosinase (inhibition); assay type: biochemical
From the text: Tyrosinase inhibition is one of the established in vitro methods of evaluating the skin fairness property.

Elastase = Elastase inhibition; assay type: biochemical
Solubility data = assay type: physicochemical; settings: Results in gm/dl; 35 to 40° C.
Method: Results in gm/dl; tests were done at 35 to 40° C. temperature.

[2] = Hygroscopicity of the solid salt; assay type: physicochemical; settings: solid salt form
[3] = Absence of sun light, Conc. 6.6 mg
[4] = Exposure to sun light for 5 minutes, Conc. 55 μg

Row | Compound | Zone of inhibition (Propionibacterium acnes; Conc. of the sample 0.5%) | Zone of inhibition (Propionibacterium acnes; Conc. of the sample 1%) | Zone of inhibition (Propionibacterium acnes; Conc. of the sample 2%) | Zone of inhibition (Propionibacterium acnes; Conc. of the sample 5%) | Zone of inhibition (Propionibacterium acnes; Conc. of the sample 10%) | IC50 for Collagenase (Collagenase) | Minimum concentration showing inhibition of P. acnes (Propionibacterium acnes) | IC50 for Elastase (Elastase) | melting point | Solubility, ETHANOL (95%) (Solubility data) | Solubility, PROPYLENE GLYCOL (Solubility data) | Solubility, WATER (D. D.) (Solubility data) | % Scavenging (DPPH) [1, 4] | Tyrosinase % Inhibition (Tyrosinase; Conc. 120 μg) | other results
1 | CCC[C@@H]1C[C@@H](C(=O)N[C@@H]([C@H]2O[C@H](SC)[C@H](O)[C@@H](O)[C@H]2O)[C@H](C)Cl)N(C)C1 [Clindamycin, reference compound] | 0 mm | 7 mm | 9 mm | 15 mm | 20 mm | – | – | – | – | – | – | – | – | – | –
2 | O=C(O)CCCCC1CCSS1 (racemic) [α-Lipoic acid, Alpha Lipoic acid, reference compound] | 0 mm | 0 mm | 0 mm | 7 mm | 8 mm | 1600 µg/mL | 5% | 1400 µg/mL | – | – | – | – | – | – | % Scavenging (DPPH) ([1]; Absence of sun light, Conc. 6 mg): 50%; % Scavenging (DPPH) ([1]; Exposure to sun light for 5 minutes, Conc. 45 μg): 50%; Tyrosinase % Inhibition (Tyrosinase; Conc. 100 μg): 51%
3 | CN(C)CCNC(=O)CCCCC1CCSS1 (racemic) (as salt: maleate) [LA Plus maleate, (±)-Maleate salt of N-[2-(dimethylamino)ethyl]-1,2-dithiolane-3-pentanamide] | – | – | – | – | – | – | – | – | 125 to 127 °C | – | – | – | – | – | –
4 | CN(C)CCNC(=O)CCCCC1CCSS1 (racemic) [LA Plus maleate, (±)-Maleate salt of N-[2-(dimethylamino)ethyl]-1,2-dithiolane-3-pentanamide] | 0 mm | 7 mm | 8 mm | 9 mm | 11 mm | 1600 µg/mL | 1.0% | 1400 µg/mL | – | 7.35% | 13% | 60% | 53% | 58% | % Scavenging (DPPH) [1, 3]: 54%
5 | CN(C)CCNC(=O)CCCCC1CCSS1.O=C(O)/C=C/C(=O)O (racemic) [LA Plus fumarate, (±)-Fumarate salt of N-[2-(dimethylamino)ethyl]-1,2-dithiolane-3-pentanamide] | 0 mm | 0 mm | 7 mm | 8 mm | 10 mm | 1600 µg/mL | 2% | 1400 µg/mL | 76 to 78 °C | 51% | 23% | 100% | 50% | 53% | % Scavenging (DPPH) ([1]; Absence of sun light, Conc. 6.2 mg): 57%
6 | O=C1O[C@H]([C@@H](O)CO)C(O)=C1O [Ascorbic acid, reference compound] | – | – | – | – | – | – | – | – | – | – | – | – | – | – | % Scavenging (DPPH) ([1]; Absence of sun light, Conc. 6 μg): 71%; % Scavenging (DPPH) ([1]; Exposure to sun light for 5 minutes, Conc. 6 μg): 59%
7 | CN(C)CCNC(=O)CCCCC1CCSS1.O=C(O)/C=C\C(=O)O (stereo not drawn) [R(+)LA Plus maleate, R-(+)-Maleate salt of N-[2-(dimethylamino)ethyl]-1,2-dithiolane-3-pentanamide] | 0 mm | 8 mm | 10 mm | 12 mm | 15 mm | 1600 µg/mL | 1.0% | 1400 µg/mL | 125 to 127 °C | 6.84% | 10% | 60% | 47% | 58.6% | % Scavenging (DPPH) [1, 3]: 49%
8 | CN(C)CCNC(=O)CCCCC1CCSS1.Cl (racemic) [(±)-LA-Plus hydrochloride, N-[2-(dimethylamino)ethyl]-1,2-dithiolane-3-pentanamide monohydrochloride] | – | – | – | – | – | – | – | – | – | – | – | – | – | – | Hygroscopicity [2]: hygroscopic
